Source: patent US5998596A, “Inhibition of protein kinase activity by aptameric action of oligonucleotides” (The United States of America as represented by the …)

System: p145^abl kinase
Test: Phosphorylation of exogenous substrate enolase by p145abl
Assay type: biochemical
Settings: ODN1 concentrations of up to 50 μM
Description: Immunoprecipitation kinase assays of p210^bcr-abl p145^abl were performed as described, with modifications (15). Briefly, for p210^bcr-abl, 1 μg of anti-bcr antibody (clone 7C6, Oncogene Science, Uniondale, N.Y.) was added to lysates prepared from 0.5-1×10^6 K562 cells. For p145^abl, 1 μg of anti-c-abl antibody (clone 24-21), which binds to the C-terminal domain of p145^abl, was added to lysates prepared from 5×10^6 PC3M cells. After incubating 1 hour at 4° C., complexes were precipitated by incubating with protein A-Sepharose coated with rabbit anti-mouse immunoglobulin (Cappel Research Products, Durham, N.C.) for 30 minutes. The complexes were then washed as follows: ABL lysis buffer×2, PBS×1, and ABL assay buffer×1 (24 mM imidazole, pH 7.2, 1 mg/ml bovine serum albumin, and 10 mM MnCl). For p145^abl assays ABL assay buffer contained 20 mM MnCl. To access the activity of p210^bcr-abl on substrate phosphorylation, acid inactivated enolase (Sigma Chemical Co., St. Louis, Mo.) was added as described (15).
ODNs were added to kinase reaction buffers not more than 5 minutes prior to the addition of ATP. Reactions were initiated by the addition of [γ^-32 P] ATP (3000 Ci/mmole; Amersham Corp., Arlington Heights, Ill.) and quenched by the addition of 5× gel loading buffer and heating to 95° C. […]

For “5'-GTCCACCATGGCGCGGCCGGC-3' [ODN1] (phosphorothioate caps, further chemistry not given here) [21mer ODN complementary to nucleotides -12 to +9 of the p210bcr-abl mRNA, phosphorothioate capped unless otherwise specified]”, the “inhibition of enolase phosphorylation by p145^abl” value was “no significant inhibition”.
